This is an account of results in patent US7323541B2, “Polypeptide DNA thereof and use of the same” (Takeda Pharmaceutical Company Limited, priority 2001, dated 2008).

Test [1] can be described thus: Feeding level after administration into rat lateral ventricle. Type of test: in vivo, Wistar rats. Particulars: 10 nmol/rat, at 1.5 hours and two hours after administration, vs distilled water group, p<0.05. As to the method: Effects on the feeding level by administration of the human TGR23-2 ligand (1-20) into rat lateral ventricle were studied.
Rats were bred for lightning hours from eight to twenty o'clock at 25° C. Male Wistar rats at eight weeks old (260 through 280 g of weight at the time of operation) were anesthetized with 50 mg/kg of pentobarbital, i.p., and each rat was immobilized in a rat brain stereotaxic apparatus. The incisor bar was set 3.3 mm lower from the interaural line. The skull was exposed, and using a dental drill a hole was made on the bone for implantation of a guide cannula AG-8 (0.4 mm inner diameter, 0.5 mm outer diameter, EICOM Co., Ltd.). In addition, three anchor screws were buried around the hole. A stainless-steel guide cannula, AG-8 was inserted in such a manner that its tip would be situated in the upper part of the lateral ventricle. Following the atlas of Paxinos and Watson (1986), the stereotaxic coordinates were set to AP: −0.8 mm, L: 1.5 mm, and H: −4.5 mm from the bregma. The guide cannula was secured to the skull using an instant adhesive, dental cement and anchor screws. […]
For about one week after embedding of guide cannula, rats were bred to be postoperatively recuperative and be naturalized to powder feed. […] Feeding level after infusion was measured with time using Feed-Scale (Columbus) every 30 minutes until four hours after administration.

The subject of test [2] is human colon cancer cell line LS 174T. The test is described as follows: Growth of carcinomas of LS 174T in nude mice. Type of test: in vivo, nude mice (BALB/cAnN-nu). The settings on record: osmotic pump 48 nmol/day for 14 days, 11th to 20th day, vs distilled water. As to the method: Effects on the growth of carcinomas by the human TGR23-2 ligand (1-20) in nude mice of human colon cancer cell line LS 174T were investigated.
The LS 174T dissolved in PBS (phosphate buffered saline) was subcutaneously administered at the ratio of 4×10^6 cells/200 μl/mouse to left abdominal of female nude mice (BALB/cAnN-nu, six weeks old). After three hours of administration, 100 μl of the human TGR23-2 ligand (1-20) dissolved in Otsuka distilled water at the concentration of 2 mM, or Otsuka distilled water was filled in the Micro-Osmotic Pump (alza, model 1002), and further embedded under the skin in the back of mouse under anesthesia (n=10 per each group). From this day, the human TGR23-2 ligand (1-20) was continuously released for 14 days at 48 nmol/day. From the third day of administration, dimensions of the carcinoma were measured, and carcinoma volume was calculated based on the formula: (major axis)×(minor axis)^2/2.

The target in test [3] is T1, rat TGR23-5 expressing CHO cells (Rattus norvegicus, UniProt P0C0L6).
T1 construct: expressed in transfected cells; host or cells: CHO dhfr- cells, pAKKO-rTGR23-5, clone No. 29
T1 sequence (P0C0L6 1-372): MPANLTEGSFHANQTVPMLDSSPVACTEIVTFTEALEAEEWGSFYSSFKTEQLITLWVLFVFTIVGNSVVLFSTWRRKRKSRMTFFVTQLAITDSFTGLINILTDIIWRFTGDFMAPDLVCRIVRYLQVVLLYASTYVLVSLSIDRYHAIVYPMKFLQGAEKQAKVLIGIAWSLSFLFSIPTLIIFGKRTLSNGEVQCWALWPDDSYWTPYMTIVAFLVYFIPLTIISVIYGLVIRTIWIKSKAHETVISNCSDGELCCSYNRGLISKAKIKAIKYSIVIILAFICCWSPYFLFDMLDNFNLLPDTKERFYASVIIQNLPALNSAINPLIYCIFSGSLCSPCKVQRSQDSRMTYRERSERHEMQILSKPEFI
The test is described as follows: Intracellular Ca ion concentration increasing activity using FLIPR. It is filed as cell-based. As to the method:
An enhancing activity of intracellular Ca^2+ release was assayed using FLIPR (Molecular Devices, Inc.). The CHO/TGR23-2 cells prepared in Example 1 and selected in Example 2 were plated on 96-well plate at 3×10^4 cells/well and cultured for 24 hours. A loading buffer was prepared by adding 1 vial of Fluo 3-AM to 10 ml of Hanks' solution (pH7.4) containing 2.5 mM Probenecid and 20 mM HEPES (hereafter, Hanks' solution (pH7.4) containing 2.5 mM Probenecid and 20 mM HEPES may be referred to as a washing buffer). The culture medium was discarded from the culture plate and 100 μl/well of the loading buffer were added to the cells. Then, the cells were incubated for 60 minutes in the incubator. After the loading buffer was removed from the culture plate and the cells were washed with the washing buffer, the plate was put in place of FLIPR. A sample was prepared by adding a sample buffer, which 2 mg/ml BSA and 1 mg/ml CHAPS were added to the washing buffer, to lyophilized product, stirring and treating by ultrasonication for 30 minutes, and transferred to 96-well sample plate. This sample plate was also put in place for assay. The enhancing activity of intracellular Ca^2+ release was measured as an increase of fluorescent intensity, which is raised by addition of the sample.
The rat TGR23-2 ligand (1-18) having various concentrations was administered in accordance with the method described in Example 5, to the CHO cells, in which rat TGR23-1 and rat TGR23-5 are expressed. Subsequently, the intracellular Ca ion concentration increasing activity was measured using FLIPR.

Where no end group is shown, it is not given here.

Take “SFRNGVGTGMKKTSFQRAKS [human TGR23-2 ligand (1-20)]”: the feeding level result in test [1] is “significant decrease of feeding level”. In addition, the “carcinoma volume of LS 174T” value in test [2] is given as “has a tendency to increase”.
As for “SFRNGVGSGVKKTSFRRA [rat TGR23-2 ligand (1-18), Ser-Phe-Arg-Asn-Gly-Val-Gly-Ser-Gly-Val-Lys-Lys-Thr-Ser-Phe-Arg-Arg-Ala]”, the “intracellular Ca ion concentration increasing activity” value in test [3] (rat TGR23-5 expressing CHO cells) is “the intracellular Ca ion level increased depending on the concentration of this ligand”. For the same sequence, the EC50 in test [3] (rat TGR23-5 expressing cells, calculated from graph FIG. 28) was 14 nM.

One may read the EC50 as the concentration needed to bring the measured effect to its halfway point.
